Key:
cortical neurons [1] = test: Neuronal apoptosis with bicuculline-enhanced activation of synaptic NMDA receptors; assay type: cell-based, rat; details: bicuculline 50 μM, 4 h; for neuronal apoptosis on co-application with bicuculline: apoptosis quantified 20 h after
Experimental: The function of the NR2A and NR2B synaptic receptor subpopulations in mediating neuronal survival or death is also illustrated herein, as follows. To increase activation of synaptic NMDA receptors by synaptically released glutamate, neurons were incubated with the GABAA receptor antagonist bicuculline (50 μM, 4 h). Bicuculline increases neuronal excitation by blocking the GABAA receptor-mediated synaptic inhibition and thereby enhances action potential-dependent synchronized release of glutamate from presynaptic terminals. Neuronal apoptosis was quantified 20 h following the treatments. […] The NR2A blockade-induced neuronal apoptosis was demonstrably mediated by synaptic NR2B-containing receptors, as it was prevented in the presence of Ro 25-6981 (p<0.01; FIG. 3B).
Dissociated cultures of cortical neurons were prepared from 18-day Sprague-Dawley rat embryos as described previously (Mielke et al., 2005). To obtain mixed cortical cultures enriched with neurons, uridine (10 μM) and 5-Fluor-2′-deoxyuridine (10 μM) were added to the culture medium at 3 DIV and maintained for 48 h, to inhibit non-neuronal cell proliferation, before the cultures were shifted back to the normal culture medium. Mature neurons (11-14 DIV) were used for experiments. To induce neuronal apoptosis, cortical cultures were stimulated with NMDA (50 μM) and glycine (10 μM) for 20 min, or STS (100 nM) for 1 h in Mg2+-free extracellular solution (ECS) containing (mM): 25 HEPES acid, 140 NaCl, 33 glucose, 5.4 KCl and 1.3 CaCl2, with pH 7.35 and osmolarity 320-330 mOsm. […]
(§1) To visualize injured neurons, Hoechst-33342 (10 μg/ml) was added to the culture medium 20 h after treatments and incubated for 45 min at 37 °C. Images were taken with a Leica DMIRE2 fluorescence microscope. Quantitative assessment of neuronal apoptosis was performed 20 h following treatments using a Cell Death Detection ELISAPLUS Kit (Roche Applied Science). Absorbance readings were determined using a spectrophotometric microplate reader. […] Data are expressed as the difference in apoptosis relative to control and are expressed as a percentage.

cortical neurons [2] = test: Apoptosis by NMDA after blockade of synaptic NMDA receptors (extrasynaptic receptors); assay type: cell-based, rat; details: synaptic receptors blocked with MK-801 plus bicuculline; NMDA 50 μM plus 10 μM glycine 20 min; assayed 20 h after
Experimental: In accordance with various aspect of the invention, we have illustrated the role of extrasynaptic NR2A- and NR2B-containing receptors in mediating NMDA-induced cell survival and death. After a specific blockade of synaptic NMDA receptors and wash-out of bicuculline and MK-801, the neurons were treated with NMDA (50 μM plus 10 μM glycine) for 20 min in the absence or presence of NVP-AAM077 (0.4 μM) or Ro 25-6981 (0.5 μM). […] Thus, as with synaptic NMDA receptors, activation of extrasynaptic NR2A-containing receptors has a role in promoting cell survival, counteracting NR2B-containing receptor-mediated neuronal apoptosis. […]
as §1

[3] = test system: middle cerebral artery occlusion (MCAo); test: MCAo focal ischemic stroke model, pretreatment; assay type: in vivo, rat; details: for neurological function (behavioral tests) / infarct area: i.v. 30 min before 1-h MCAo; for neurological function (behavioral tests): 24 h after onset; for infarct area: NVP-AAM077 2.4 mg/kg, Ro 25-6981 6 mg/kg, 24 h
Experimental: This aspect of the invention was also illustrated in vivo using a rat focal ischemic stroke model—middle cerebral artery occlusion (MCAo) (Aarts et al., 2002; Bederson et al., 1986). We first infused NVP-AAM077 (2.4 mg/kg), Ro 25-6981 (6 mg/kg (Loschmann et. al., 2004)) or vehicle (saline) intravenously in the rats 30 min prior to stroke onset. The animals were then subjected to a 1-h transient ischemic stroke induced by MCAo. This relatively short duration of ischemia was chosen to unmask the potential neuroprotective effects mediated by NR2A-containing receptors activated during the stroke challenge. Neurological score and cerebral infarction were examined 24 h after the MCAo onset. […] Together, these observations indicate that both NR2A- and NR2B-containing NMDA receptor subtypes are activated during stroke, exerting opposing effects on ischemic brain damage.
Transient cerebral focal ischemia was produced by middle cerebral artery occlusion (MCAo) as described (Aarts et al., 2002; Bederson et al., 1986; Longa et al., 1989). Briefly, male Sprague-Dawley rats (Charles River Laboratories) weighing ˜300 g were anesthetized and MCAo was achieved by introducing a 3-0 monofilament suture into the MCA via the internal carotid artery. Body temperature was maintained at 37.0±0.5° C., and blood pressure and blood gases were monitored during the experiments. Animals were sacrificed 24 h following MCAo onset. Cerebral infarction was analyzed using brain sections stained with hematoxylin and eosin (H & E) or 2,3,5-triphenyltetrazolium chloride (TTC). 10 min before the animals were sacrificed, two tests, the postural reflex test to examine upper body posture (Bederson et al., 1986) and the forelimb placing test to examine sensorimotor integration in forelimb placing responses to visual, tactile, and proprioceptive stimuli (De Ryck et al., 1989), were performed to grade neurological function on a scale of 0 to 12 (0=normal, 12=worst). In the pretreatment study, a single bolus of drugs (NR2A-specific antagonist NVP-AAM077 (2.4 mg/kg) or NR2B specific antagonist Ro 25-6981 (6 mg/kg) or vehicle (saline)) was infused intravenously 30 min before a 1-h MCAo. For post-treatment experiments, animals were subjected to a 1.5-h MCAo and drug treatments (glycine, 800 mg/kg; NVP-AAM077 and Ro 25-6981 at the same doses as in the pretreatment study) were then given via intraperitoneal injection (i.p.) 3 h after reperfusion (4.5 h after the onset of MCAo).

Row | Structure (SMILES) | effect on NR2A blockade (NVP-AAM077 + bicuculline)-induced neuronal apoptosis (cortical neurons [1]; plus NVP-AAM077) | neuronal apoptosis on co-application with bicuculline (cortical neurons [1]) | effect on apoptosis elicited by NMDA via extrasynaptic NMDA receptors (cortical neurons [2]) | decrease of total infarct volume compared with saline-treated animals ([3]; 6 mg/kg i.v. 30 min before 1-h MCAo, 24 h after MCAo onset) | neurological function (behavioral tests) [3] | infarct area [3] | increase in total infarct volume compared with saline-treated animals ([3]; 2.4 mg/kg i.v. 30 min before 1-h MCAo, 24 h after MCAo onset)
1 | C[C@@H](CN1CCC(Cc2ccccc2)CC1)[C@@H](O)c1ccc(O)cc1 (relative stereo) [Ro 25-6981, [R-(R*,S*)]-α-(4-Hydroxyphenyl)-β-methyl-4-(phenylmethyl)-1-piperidinepropanol] | prevented | did not cause apoptotic cell death | prevented | 67.8±4.3% | significant protective effect | decreased | 
2 | C[C@H](NC(c1cccc2[nH]c(=O)c(=O)[nH]c12)P(=O)(O)O)c1ccc(Br)cc1 (some centres unmarked) [NVP-AAM077] |  | significantly increased neuronal apoptosis | potentiated NMDA-mediated apoptosis |  | trend toward poorer neurological function | increased | 67.0±17.9%
